The text below walks through data of US10821115B2, “Compounds that inhibit Mcl-1 protein” (priority 2017, dated 2020).

The target of assay [1] is recombinant human Mcl-1 (residues 171-327) / Bim interaction (Homo sapiens (Human), UniProt Q07820). In words: biochemical. The settings on record: read-out: Mcl-1 HTRF IC50. It is filed as binding.
For assay [2], the system named is human multiple myeloma cell line, OPM-2. The assay can be described thus: Cell viability assay (OPM-2 10 FBS), CellTiter-Glo. It is filed as cell-based. The method, boiled down:
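IC50 values come from 4-parameter logistic fits of luminescence signals reflecting cell viability. Treatment lasted 16 h at 37 °C in complete medium with 10% FBS, starting from 3000 cells/well.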

[3] abbreviates: Homo sapiens, OPM-2, 16 h, read-out: OPM-2 10% FBS IC50 IP, OPM-2 cells, 10% FBS, 16 h, CellTiter-Glo.
Setting [4] is: TR-FRET, Mcl-1(171-327) / biotin-Bim (51-76).
Where [5] appears, read: read-out: OPM-2 10% FBS IC50 IP, OPM-2 cells, 10% FBS, 16 h, CellTiter-Glo.
The mark [6] stands for this setting: 0.1 nM Mcl-1(171-327), 0.05 nM biotin-Bim (51-76).
The mark [7] stands for this setting: Homo sapiens, OPM-2, 16 h, read-out: OPM-2 10% FBS IC50 IP, OPM-2 cells, 10% FBS, 16 h incubation.

Read-outs that look alike come from different tables or passages of the source.

Chain of recombinant human Mcl-1 (residues 171-327) / Bim interaction (Q07820 171-327): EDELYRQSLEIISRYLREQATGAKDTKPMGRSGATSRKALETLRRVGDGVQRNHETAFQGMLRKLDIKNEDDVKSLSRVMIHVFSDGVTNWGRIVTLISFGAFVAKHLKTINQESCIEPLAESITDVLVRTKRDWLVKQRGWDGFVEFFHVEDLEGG

With `C[C@@H]1[C@@H](C)CCC[C@](C=O)(CN2CCOCC2)[C@@H]2CC[C@H]2CN2C[C@@]3(CCCc4cc(Cl)ccc43)COc3ccc(cc32)C(=O)NS1(=O)=O` [Example 100337, (1S,3′R,6′R,7′R,11′S,12′R)-6-chloro-11′,12′-dimethyl-7′-(4-morpholinylmethyl)-15′-oxo-3,4-dihydro-2H-spiro[naphthalene-1,22′-[20]oxa[13]thia[1,14]diazatetracyclo [14.7.2.0~3,6~.0~19,24~]pentacosa[16,18,24]triene]-7′-carbaldehyde 13′,13′-dioxide], the half-maximal inhibitory concentration (IC50) in assay [1] was 1.61 nM; in assay [2] (setting [3]), 2410 nM.

As to `CO[C@]1(C[C@H](O)C(C)C)/C=C/C[C@H](C)[C@@H](C)S(=O)(=O)NC(=O)c2ccc3c(c2)N(C[C@@H]2CC[C@H]21)C[C@@]1(CCCc2cc(Cl)ccc21)CO3` [Example 100358, (1S,3′R,6′R,7′R,8′E,11′S,12′R)-6-chloro-7′-((2S)-2-hydroxy-3-methylbutyl)-7′-methoxy-11′,12′-dimethyl-3,4-dihydro-2H,15′H-spiro[naphthalene-1,22′-[20]oxa[13]thia[1,14]diazatetracyclo [14.7.2.0~3,6~.0~19,24~]pentacosa[8,16,18,24]tetraen]-15′-one 13′,13′-dioxide], the half-maximal inhibitory concentration (IC50) in assay [1] (setting [4]) was 0.118 nM; in assay [2] (setting [5]), 81 nM.

In the case of `Cc1onc(C[C@@]2(O)/C=C/C[C@H](C)[C@@H](C)S(=O)(=O)NC(=O)c3ccc4c(c3)N(C[C@@H]3CC[C@H]32)C[C@@]2(CCCc3cc(Cl)ccc32)CO4)c1C` [Example 100573, (1S,3′R,6′R,7′R,8′E,11′S,12′R)-6-chloro-7′-((4,5-dimethyl-1,2-oxazol-3-yl)methyl)-7′-hydroxy-11′,12′-dimethyl-3,4-dihydro-2H,15′H-spiro[naphthalene-1,22′-[20]oxa[13]thia[1,14]diazatetracyclo [14.7.2.0~3,6~.0~19,24~]pentacosa[8,16,18,24]tetraen]-15′-one 13′,13′-dioxide], the IC50 came out at 2.07 nM in assay [1] (setting [4]) and 7390 nM in assay [2] (setting [3]).

Consider `COC[C@@H]1[C@@H](C)C/C=C/[C@](CN2CCN3CCCC[C@@H]3C2)(OC)[C@@H]2CC[C@H]2CN2C[C@@]3(CCCc4cc(Cl)ccc43)COc3ccc(cc32)C(=O)NS1(=O)=O` [Example 169], for which the IC50 came out at 0.14 nM in assay [1] (setting [6]) and 74 nM in assay [2] (setting [7]).

Turning to `COCC[C@H]1[C@@H](C)C/C=C/[C@](CN2CCN3CCOC[C@@H]3C2)(OC)[C@@H]2CC[C@H]2CN2C[C@@]3(CCCc4cc(Cl)ccc43)COc3ccc(nc32)C(=O)NS1(=O)=O` [Example 22, (1S,3′R,6′R,7′S,8′E,11′S,12′S)-6-chloro-7′-((9aS)-hexahydropyrazino[2,1-c][1,4]oxazin-8(1H)-ylmethyl)-7′-methoxy-12′-(2-methoxyethyl)-11′-methyl-3,4-dihydro-2H,15′H-spiro[naphthalene-1,22′-[20]oxa[13]thia[1,14,25]triazatetracyclo [14.7.2.0~3,6~.0~19,24~]pentacosa[8,16,18,24]tetraen]-15′-one 13′,13′-dioxide], the values for the IC50 in assay [1] (setting [6]) and in assay [2] (setting [7]) were 0.669 nM and 2230 nM, respectively.

With `COCC[C@@H]1[C@@H](C)C/C=C/[C@@](C=O)(OC)[C@@H]2CC[C@H]2CN2C[C@@]3(CCCc4cc(Cl)ccc43)COc3ccc(cc32)C(=O)NS1(=O)=O` [Example 100571, (1S,3′R,6′R,7′R,8′E,11′S,12′R)-6-chloro-7′-methoxy-12′-(2-methoxyethyl)-11′-methyl-15′-oxo-3,4-dihydro-2H-spiro[naphthalene-1,22′-[20]oxa[13]thia[1,14]diazatetracyclo [14.7.2.0~3,6~.0~19,24~]pentacosa[8,16,18,24]tetraene]-7′-carbaldehyde 13′,13′-dioxide], the results for the 50% inhibitory concentration (IC50) in assay [1] (setting [4]) and in assay [2] (setting [3]) were 0.076 nM and 922 nM, respectively.

For `CO[C@]1(CN2CCCCC2)/C=C/C[C@H](C)[C@@H](C)S(=O)(=O)NC(=O)c2ccc3c(c2)N(C[C@@H]2CC[C@H]21)C[C@@]1(CCCc2cc(Cl)ccc21)CO3` [Example 74, (1S,3′R,6′R,7′R,8′E,11′S,12′R)-6-chloro-7′-methoxy-11′,12′-dimethyl-7′-(1-piperidinylmethyl)-3,4-dihydro-2H,15′H-spiro[naphthalene-1,22′-[20]oxa[13]thia[1,14]diazatetracyclo [14.7.2.0~3,6~.0~19,24~]pentacosa[8,16,18,24]tetraen]-15′-one 13′,13′-dioxide], the figures for the 50% inhibitory concentration (IC50) in assay [1] (setting [6]) and in assay [2] (setting [7]) were 2.29 nM and 3360 nM, respectively.

`C[C@@H]1[C@@H](C)CCC[C@@](O)(CCN2CCCCC2)[C@@H]2CC[C@H]2CN2C[C@@]3(CCCc4cc(Cl)ccc43)COc3ccc(cc32)C(=O)NS1(=O)=O` [Example 100092, (1S,3′R,6′R,7′R,11′S,12′R)-6-chloro-7′-hydroxy-11′,12′-dimethyl-7′-(2-(1-piperidinyl)ethyl)-3,4-dihydro-2H,15′H-spiro[naphthalene-1,22′-[20]oxa[13]thia[1,14]diazatetracyclo [14.7.2.0~3,6~.0~19,24~]pentacosa[16,18,24]trien]-15′-one 13′,13′-dioxide]: the half-maximal inhibitory concentration (IC50) in assay [1] (setting [4]) was determined as 4.02 nM; in assay [2] (setting [5]) it was 2210 nM.

For `CO[C@@]1(CCN(C)C)/C=C/C[C@H](C)[C@@H](C)S(=O)(=O)NC(=O)c2ccc3c(c2)N(C[C@@H]2CC[C@H]21)C[C@@]1(CCCc2cc(Cl)ccc21)CO3` [Example 100393, (1S,3′R,6′R,7′S,8′E,11′S,12′R)-6-chloro-7′-(2-(dimethylamino)ethyl)-7′-methoxy-11′,12′-dimethyl-3,4-dihydro-2H,15′H-spiro[naphthalene-1,22′-[20]oxa[13]thia[1,14]diazatetracyclo [14.7.2.0~3,6~.0~19,24~]pentacosa[8,16,18,24]tetraen]-15′-one 13′,13′-dioxide], the figures for the IC50 in assay [1] (setting [4]) and in assay [2] (setting [3]) were 0.164 nM and 211 nM, respectively.

As for `C[C@@H]1[C@@H](C)CCC[C@](C)(CO)[C@@H]2CC[C@H]2CN2C[C@@]3(CCCc4cc(Cl)ccc43)COc3ccc(cc32)C(=O)NS1(=O)=O` [Example 100301, (1S,3′R,6′R,7′S,11′S,12′R)-6-chloro-7′-(hydroxymethyl)-7′,11′,12′-trimethyl-3,4-dihydro-2H,15′H-spiro[naphthalene-1,22′-[20]oxa[13]thia[1,14]diazatetracyclo [14.7.2.0~3,6~.0~19,24~]pentacosa[16,18,24]trien]-15′-one 13′,13′-dioxide], the concentration for half-maximal inhibition (IC50) was determined as 1.31 nM in assay [1] (setting [4]) and 1930 nM in assay [2] (setting [3]).

As for `CO[C@@H](C[C@]1(OC)/C=C/C[C@H](C)[C@@H](C)S(=O)(=O)NC(=O)c2ccc3c(c2)N(C[C@@H]2CC[C@H]21)C[C@@]1(CCCc2cc(Cl)ccc21)CO3)C1CC1` [Example 100463, (1S,3′R,6′R,7′S,8′E,11′S,12′R)-6-chloro-7′-((2S)-2-cyclopropyl-2-methoxyethyl)-7′-methoxy-11′,12′-dimethyl-3,4-dihydro-2H,15′H-spiro[naphthalene-1,22′-[20]oxa[13]thia[1,14]diazatetracyclo [14.7.2.0~3,6~.0~19,24~]pentacosa[8,16,18,24]tetraen]-15′-one 13′,13′-dioxide], the IC50 in assay [1] (setting [4]) worked out at 0.383 nM; in assay [2] (setting [5]), 1130 nM.

Turning to `C[C@@H]1[C@@H](C)CCC[C@](CO)(OCCN2CCOCC2)[C@@H]2CC[C@H]2CN2C[C@@]3(CCCc4cc(Cl)ccc43)COc3ccc(cc32)C(=O)NS1(=O)=O` [Example 100280, (1S,3′R,6′R,7′S,11′S,12′R)-6-chloro-7′-(hydroxymethyl)-11′,12′-dimethyl-7′-(2-(4-morpholinyl)ethoxy)-3,4-dihydro-2H,15′H-spiro[naphthalene-1,22′-[20]oxa[13]thia[1,14]diazatetracyclo [14.7.2.0~3,6~.0~19,24~]pentacosa[16,18,24]trien]-15′-one 13′,13′-dioxide], the IC50 in assay [1] (setting [4]) amounted to 0.368 nM; in assay [2] (setting [3]) it was 305 nM.

Take `CO[C@]1(CN2CCN(CC(F)F)CC2)/C=C/C[C@H](C)[C@@H](C)S(=O)(=O)NC(=O)c2ccc3c(c2)N(C[C@@H]2CC[C@H]21)C[C@@]1(CCCc2cc(Cl)ccc21)CO3` [Example 95, (1S,3′R,6′R,7′R,8′E,11′S,12′R)-6-chloro-7′-((4-(2,2-difluoroethyl)-1-piperazinyl)methyl)-7′-methoxy-11′,12′-dimethyl-3,4-dihydro-2H,15′H-spiro[naphthalene-1,22′-[20]oxa[13]thia[1,14]diazatetracyclo [14.7.2.0~3,6~.0~19,24~]pentacosa[8,16,18,24]tetraen]-15′-one 13′,13′-dioxide]: the IC50 in assay [1] (setting [6]) is 0.189 nM; in assay [2] (setting [7]), 338 nM.

With `CO[C@@]1(C[C@@H](O)C(C)C)/C=C/C[C@H](C)[C@@H](C)S(=O)(=O)NC(=O)c2ccc3c(c2)N(C[C@@H]2CC[C@H]21)C[C@@]1(CCCc2cc(Cl)ccc21)CO3` (racemic) [Example 100326, (1S,3′R,6′R,7′S,8′E,11′S,12′R)-6-chloro-7′-((2R)-2-hydroxy-3-methylbutyl)-7′-methoxy-11′,12′-dimethyl-3,4-dihydro-2H,15′H-spiro[naphthalene-1,22′-[20]oxa[13]thia[1,14]diazatetracyclo [14.7.2.0~3,6~.0~19,24~]pentacosa[8,16,18,24]tetraen]-15′-one 13′,13′-dioxide], the IC50 in assay [1] (setting [4]) stood at 0.615 nM; in assay [2] (setting [3]), 334 nM.

As to `CO[C@@]1(CN2CCN([C@H]3CCOC3)CC2)/C=C/C[C@H](C)[C@@H](C)S(=O)(=O)NC(=O)c2ccc3c(c2)N(C[C@@H]2CC[C@H]21)C[C@@]1(CCCc2cc(Cl)ccc21)CO3` (single isomer, unassigned) [Example 285], the half-maximal inhibitory concentration (IC50) was found to be 0.107 nM in assay [1] (setting [6]) and 62 nM in assay [2] (read-out: OPM-2 10% FBS IC50 IP, OPM-2 cells, 10% FBS, 16 h incubation).
